Results on 20 compounds are retold here after patent US20260325533A1, “CDK INHIBITOR COMPOUNDS” (ALEKSIA THERAPEUTICS, INC., priority 2023, published 2026).

Where two headings read alike, the source gives them in different places. Bounds are passed on as bounds.

Type in all cases: biochemical
One assay deals with CDK2/CCNE1 (Homo sapiens, UniProt P24941). The assay can be described thus: CDK2 homogeneous time-resolved fluorescence (HTRF) kinase assay. Particulars: CDK2/CCNE. The method, boiled down: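 TR-FRET read-out (665 nm, or 665/615 ratio) of Eu-antibody detection of phospho-4E-BP1 (Thr37/46) ULight peptide. Enzyme 3 nM, ATP 1 mM, peptide 50 nM, 1% DMSO; 60 min reaction at 23 °C after 20 min compound preincubation. IC50 from 11-point half-log titrations, top typically 10 μM.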

A further assay has as its target CDK1/CCNB1 (Homo sapiens, UniProt P06493). The assay can be described thus: CDK1 homogeneous time-resolved fluorescence (HTRF) kinase assay. Particulars: CDK1/CCNB; >250 nM marked x; read-out: CDK1/CCNB IC50 >250 nM. An outline of the steps: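 High-ATP (1 mM) HTRF assay with 0.5 nM CDK1/cyclin B1 and 50 nM ULight-4E-BP1 (Thr37/46) substrate, 60 min at 23 °C after 20-min compound preincubation. IC50 values come from dose-response curves.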
On the technique in general: In TR-FRET formats the signal depends on donor and acceptor labels being close together.

Another assay concerns the target CDK4/CCND3 (Homo sapiens, UniProt P11802). The assay can be described thus: CDK4 homogeneous time-resolved fluorescence (HTRF) kinase assay. The conditions noted are these: CDK4/CCND. The method, boiled down: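 IC50 values were derived from 11-point half-log dilutions, usually starting at 10 μM. Compound was first held for 20 min at 23 °C with 1.5 nM CDK4/CCND3. 1 mM ATP and 50 nM ULight-eIF4E-BP1 (Thr37/46) substrate were then added for 60 min, and the TR-FRET 665 nm signal was measured after EDTA stop and Eu-anti-phospho-4E-BP1 detection.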

For a further assay, the target named is CDK6/CCND1 (Homo sapiens, UniProt Q00534). The assay can be described thus: CDK6 homogeneous time-resolved fluorescence (HTRF) kinase assay. Particulars: CDK6/CCND. An outline of the steps: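 Recombinant CDK6/CCND1 (1 nM final) was preincubated with compound for 20 min at 23 °C in HEPES buffer with MgCl2, EGTA, DTT and Tween 20. Kinase reaction then ran 60 min at 23 °C with 1 mM ATP and 50 nM ULight-4E-BP1 (Thr37/46) peptide, and was stopped with EDTA.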
CDK6/CCND1, sequence (Q00534 whole entry): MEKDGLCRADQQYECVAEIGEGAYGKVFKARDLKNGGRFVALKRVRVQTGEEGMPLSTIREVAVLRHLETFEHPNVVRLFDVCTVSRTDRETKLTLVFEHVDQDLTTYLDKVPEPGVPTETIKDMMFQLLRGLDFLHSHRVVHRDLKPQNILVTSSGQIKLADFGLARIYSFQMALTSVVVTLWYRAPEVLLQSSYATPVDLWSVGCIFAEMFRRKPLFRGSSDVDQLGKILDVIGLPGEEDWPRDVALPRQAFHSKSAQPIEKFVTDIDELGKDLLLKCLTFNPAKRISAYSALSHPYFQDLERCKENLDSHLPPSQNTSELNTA
CDK6/CCND1, sequence (P24385 whole entry partner): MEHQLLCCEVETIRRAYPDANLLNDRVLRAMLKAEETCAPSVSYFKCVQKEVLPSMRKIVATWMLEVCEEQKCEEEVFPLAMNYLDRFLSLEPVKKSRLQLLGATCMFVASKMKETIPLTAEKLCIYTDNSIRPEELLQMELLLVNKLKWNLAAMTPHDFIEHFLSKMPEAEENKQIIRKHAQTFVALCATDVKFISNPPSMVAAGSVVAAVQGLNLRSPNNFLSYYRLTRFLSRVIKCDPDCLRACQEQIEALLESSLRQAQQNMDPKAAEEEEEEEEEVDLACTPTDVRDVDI

Setting [1] is: <25 nM, read-out: CDK2/CCNE IC50 <25 nM.
[2] abbreviates: 25-250 nM marked x, read-out: CDK4/CCND IC50 25-250 nM.
[3] abbreviates: 25-250 nM marked x, read-out: CDK6/CCND IC50 25-250 nM.
The mark [4] stands for this setting: 25-250 nM marked x, read-out: CDK2/CCNE IC50 25-250 nM.
[5] abbreviates: >250 nM marked x, read-out: CDK4/CCND IC50 >250 nM.
Where [6] appears, read: >250 nM marked x, read-out: CDK6/CCND IC50 >250 nM.
Where [7] appears, read: >250 nM marked x, read-out: CDK2/CCNE IC50 >250 nM.

CDK4/CCND3, sequence (P11802 whole entry): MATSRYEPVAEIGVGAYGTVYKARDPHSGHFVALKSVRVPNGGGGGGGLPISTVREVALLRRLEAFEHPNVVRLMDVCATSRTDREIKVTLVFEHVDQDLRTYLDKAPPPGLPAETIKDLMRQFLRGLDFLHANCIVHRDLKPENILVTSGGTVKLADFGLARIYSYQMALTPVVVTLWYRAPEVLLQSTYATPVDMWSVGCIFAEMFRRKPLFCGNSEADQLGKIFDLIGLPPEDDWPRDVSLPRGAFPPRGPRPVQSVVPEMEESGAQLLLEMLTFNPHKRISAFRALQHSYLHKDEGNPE
CDK4/CCND3, sequence (P30281 whole entry partner): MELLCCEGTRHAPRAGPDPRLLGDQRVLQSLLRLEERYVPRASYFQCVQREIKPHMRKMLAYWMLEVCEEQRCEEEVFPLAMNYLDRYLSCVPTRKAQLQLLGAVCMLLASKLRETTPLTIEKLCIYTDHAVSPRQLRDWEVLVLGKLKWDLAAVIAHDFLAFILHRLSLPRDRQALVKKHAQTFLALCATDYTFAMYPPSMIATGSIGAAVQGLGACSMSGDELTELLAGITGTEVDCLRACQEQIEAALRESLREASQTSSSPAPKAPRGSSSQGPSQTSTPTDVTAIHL
CDK1/CCNB1, sequence (P06493 whole entry): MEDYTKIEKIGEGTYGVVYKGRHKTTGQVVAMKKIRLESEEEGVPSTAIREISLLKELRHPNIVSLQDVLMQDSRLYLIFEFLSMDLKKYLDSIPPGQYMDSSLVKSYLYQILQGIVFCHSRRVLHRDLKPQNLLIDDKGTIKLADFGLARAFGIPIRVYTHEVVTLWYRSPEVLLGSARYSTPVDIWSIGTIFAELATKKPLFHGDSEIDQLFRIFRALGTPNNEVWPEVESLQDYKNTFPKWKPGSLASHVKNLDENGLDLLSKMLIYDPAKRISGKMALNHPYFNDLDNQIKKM
CDK1/CCNB1, sequence (P14635 whole entry partner): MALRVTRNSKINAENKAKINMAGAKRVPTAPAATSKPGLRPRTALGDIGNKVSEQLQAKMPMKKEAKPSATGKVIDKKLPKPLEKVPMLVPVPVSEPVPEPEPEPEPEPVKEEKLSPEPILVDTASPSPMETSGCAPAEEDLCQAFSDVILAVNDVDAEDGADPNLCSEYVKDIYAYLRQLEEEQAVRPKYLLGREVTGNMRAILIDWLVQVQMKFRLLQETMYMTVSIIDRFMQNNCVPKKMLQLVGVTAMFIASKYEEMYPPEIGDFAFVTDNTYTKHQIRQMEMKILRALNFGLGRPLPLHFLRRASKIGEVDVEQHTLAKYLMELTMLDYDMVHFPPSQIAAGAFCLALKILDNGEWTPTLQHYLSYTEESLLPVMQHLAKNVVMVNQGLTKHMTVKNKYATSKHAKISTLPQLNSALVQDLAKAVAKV

For the compound `COC(=O)[C@H]1CC[C@H](C#Cc2nccc3cnc(Nc4ccc(S(C)(=O)=O)cc4)cc23)CC1` [Ex 213, methyl (1r,4r)-4-((7-((4-(methylsulfonyl)phenyl)amino)-2,6-naphthyridin-1-yl)ethynyl)cyclohexane-1-carboxylate], the IC50 at CDK2/CCNE1 (setting [1]) was under 25 nM; on CDK1/CCNB1 it was over 250 nM; at CDK4/CCND3 (setting [2]), 25 to 250 nM; at CDK6/CCND1 (setting [3]), 25 to 250 nM.
For `CS(=O)(=O)c1ccc(Nc2cc3c(C#CC4CC4)nccc3cn2)cc1` [Ex 214, 5-(cyclopropylethynyl)-N-(4-(methylsulfonyl)phenyl)-2,6-naphthyridin-3-amine], the IC50 on CDK2/CCNE1 (setting [1]) was under 25 nM; at CDK1/CCNB1, over 250 nM; at CDK4/CCND3 (setting [2]), 25 to 250 nM; at CDK6/CCND1 (setting [3]), 25 to 250 nM.
As for `Cc1c(-c2nccc3cnc(Nc4ccc(S(C)(=O)=O)cc4)cc23)ccc2c1cnn2CCC1CNC1` [Ex 216, 5-(1-(2-(azetidin-3-yl)ethyl)-4-methyl-1H-indazol-5-yl)-N-(4-(methylsulfonyl)phenyl)-2,6-naphthyridin-3-amine], the IC50 was 25 to 250 nM at CDK2/CCNE1 (setting [4]), over 250 nM at CDK1/CCNB1, over 250 nM on CDK4/CCND3 (setting [5]) and over 250 nM at CDK6/CCND1 (setting [6]).
As to `C=CS(=O)(=O)c1ccc(Nc2cc3c(-c4cccc(CO)c4)nccc3cn2)cc1` [Ex 217, (3-(7-((4-(vinylsulfonyl)phenyl)amino)-2,6-naphthyridin-1-yl)phenyl)methanol], the IC50 at CDK2/CCNE1 (setting [4]) was 25 to 250 nM; on CDK1/CCNB1 it was over 250 nM; at CDK4/CCND3 (setting [5]), over 250 nM; on CDK6/CCND1 (setting [6]) it was over 250 nM.
As for `COc1c(-c2nccc3cnc(Nc4ccc(S(C)(=O)=O)cc4)cc23)ccc2[nH]ncc12` [Ex 220, 5-(4-methoxy-1H-indazol-5-yl)-N-(4-(methylsulfonyl)phenyl)-2,6-naphthyridin-3-amine], the IC50 at CDK2/CCNE1 (setting [4]) was 25 to 250 nM; at CDK1/CCNB1 it was over 250 nM; at CDK4/CCND3 (setting [5]), over 250 nM; on CDK6/CCND1 (setting [6]), over 250 nM.
`Cc1cc2[nH]ncc2cc1-c1nccc2cnc(Nc3ccc(S(=O)(=O)CCO)cc3)cc12` [Ex 222, 2-((4-((5-(6-methyl-1H-indazol-5-yl)-2,6-naphthyridin-3-yl)amino)phenyl)sulfonyl)ethan-1-ol]: the IC50 is 25 to 250 nM at CDK2/CCNE1 (setting [4]), over 250 nM at CDK1/CCNB1, over 250 nM on CDK4/CCND3 (setting [5]) and over 250 nM at CDK6/CCND1 (setting [6]).
`CS(=O)(=O)c1ccc(Nc2cc3c(ccnc3[C@H]3CC[C@H](C(N)=O)CC3)cn2)cc1` [Ex 223, (1r,4r)-4-(7-((4-(methylsulfonyl)phenyl)amino)-2,6-naphthyridin-1-yl)cyclohexane-1-carboxamide]: the IC50 on CDK2/CCNE1 (setting [4]) was 25 to 250 nM; at CDK1/CCNB1 it was over 250 nM; on CDK4/CCND3 (setting [2]) it was 25 to 250 nM; at CDK6/CCND1 (setting [6]), over 250 nM.
With `C=CCNC(=O)[C@H]1CC[C@H](c2nccc3cnc(Nc4ccc(S(C)(=O)=O)cc4)cc32)CC1` [Ex 224, (1r,4r)-N-allyl-4-(7-((4-(methylsulfonyl)phenyl)amino)-2,6-naphthyridin-1-yl)cyclohexane-1-carboxamide], the IC50 on CDK2/CCNE1 (setting [4]) is 25 to 250 nM; on CDK1/CCNB1, over 250 nM; on CDK4/CCND3 (setting [5]), over 250 nM; on CDK6/CCND1 (setting [6]) it was over 250 nM.
With `CN(C)C(=O)[C@H]1CC[C@H](c2nccc3cnc(Nc4ccc(S(C)(=O)=O)cc4)cc32)CC1` [Ex 225, (1r,4r)-N,N-dimethyl-4-(7-((4-(methylsulfonyl)phenyl)amino)-2,6-naphthyridin-1-yl)cyclohexane-1-carboxamide], the IC50 on CDK2/CCNE1 (setting [7]), on CDK1/CCNB1, at CDK4/CCND3 (setting [5]) and on CDK6/CCND1 (setting [6]) was over 250 nM each time.
Turning to `CS(=O)(=O)c1ccc(Nc2cc3c(ccnc3[C@H]3CC[C@H](C(=O)NC4CCOCC4)CC3)cn2)cc1` [Ex 226, (1r,4r)-4-(7-((4-(methylsulfonyl)phenyl)amino)-2,6-naphthyridin-1-yl)-N-(tetrahydro-2H-pyran-4-yl)cyclohexane-1-carboxamide], the IC50 at CDK2/CCNE1 (setting [7]), at CDK1/CCNB1, at CDK4/CCND3 (setting [5]) and on CDK6/CCND1 (setting [6]) was over 250 nM throughout.
With `CN1CCN(C(=O)[C@H]2CC[C@H](c3nccc4cnc(Nc5ccc(S(C)(=O)=O)cc5)cc43)CC2)CC1` [Ex 227, (4-methylpiperazin-1-yl)((1r,4r)-4-(7-((4-(methylsulfonyl)phenyl)amino)-2,6-naphthyridin-1-yl)cyclohexyl)methanone], the IC50 on CDK2/CCNE1 (setting [7]), at CDK1/CCNB1, on CDK4/CCND3 (setting [5]) and at CDK6/CCND1 (setting [6]) was over 250 nM each time.
`CS(=O)(=O)c1ccc(Nc2cc3c(ccnc3[C@H]3CC[C@H](C(=O)N4CCSCC4)CC3)cn2)cc1` [Ex 228, ((1r,4r)-4-(7-((4-(methylsulfonyl)phenyl)amino)-2,6-naphthyridin-1-yl)cyclohexyl)(thiomorpholino)methanone]: the IC50 at CDK2/CCNE1 (setting [7]), on CDK1/CCNB1, on CDK4/CCND3 (setting [5]) and on CDK6/CCND1 (setting [6]) was over 250 nM in each case.
For `C=CS(=O)(=O)c1ccc(Nc2cc3c(-c4ccc5cn[nH]c5c4)nccc3cn2)cc1` [Ex 241, 5-(1H-indazol-6-yl)-N-(4-(vinylsulfonyl)phenyl)-2,6-naphthyridin-3-amine], the IC50 at CDK2/CCNE1 (setting [4]) was 25 to 250 nM; at CDK1/CCNB1, over 250 nM; at CDK4/CCND3 (setting [5]), over 250 nM; at CDK6/CCND1 (setting [3]), 25 to 250 nM.
As to `Cc1c(-c2nccc3cnc(Nc4ccc(S(C)(=O)=O)cc4)cc23)ccc2c1cnn2C1CCN(C)CC1` [Ex 242, 5-(4-methyl-1-(1-methylpiperidin-4-yl)-1H-indazol-5-yl)-N-(4-(methylsulfonyl)phenyl)-2,6-naphthyridin-3-amine], the IC50 on CDK2/CCNE1 (setting [4]) was 25 to 250 nM; at CDK1/CCNB1 it was over 250 nM; on CDK4/CCND3 (setting [5]), over 250 nM; on CDK6/CCND1 (setting [6]), over 250 nM.
On to `Cc1c(-c2nccc3cnc(Nc4ccc(S(C)(=O)=O)cc4)cc23)ccc2c1cnn2CC1CN(C)C1` [Ex 243, 5-(4-methyl-1-((1-methylazetidin-3-yl)methyl)-1H-indazol-5-yl)-N-(4-(methylsulfonyl)phenyl)-2,6-naphthyridin-3-amine], for which the IC50 at CDK2/CCNE1 (setting [4]) is 25 to 250 nM; on CDK1/CCNB1, over 250 nM; on CDK4/CCND3 (setting [2]) it was 25 to 250 nM; on CDK6/CCND1 (setting [3]), 25 to 250 nM.
On to `CC(C)(C)c1nccc2cnc(Nc3ccc(S(C)(=O)=O)cc3)cc12` [Ex 244, 5-(tert-butyl)-N-(4-(methylsulfonyl)phenyl)-2,6-naphthyridin-3-amine], for which the IC50 at CDK2/CCNE1 (setting [4]) was 25 to 250 nM; at CDK1/CCNB1 it was over 250 nM; on CDK4/CCND3 (setting [5]) it was over 250 nM; at CDK6/CCND1 (setting [3]), 25 to 250 nM.
Take `C=CS(=O)(=O)c1ccc(Nc2cc3c(-c4ccc5[nH]ncc5c4C)nccc3cn2)cc1` [Ex 245, 5-(4-methyl-1H-indazol-5-yl)-N-(4-(vinylsulfonyl)phenyl)-2,6-naphthyridin-3-amine]: the IC50 was 25 to 250 nM at CDK2/CCNE1 (setting [4]), over 250 nM at CDK1/CCNB1, over 250 nM on CDK4/CCND3 (setting [5]) and over 250 nM on CDK6/CCND1 (setting [6]).
Turning to `CC(=O)N[C@H]1CC[C@H](C#Cc2nccc3cnc(Nc4ccc(S(C)(=O)=O)cc4)cc23)CC1` [Ex 246, N-((1r,4r)-4-((7-((4-(methylsulfonyl)phenyl)amino)-2,6-naphthyridin-1-yl)ethynyl)cyclohexyl)acetamide], the IC50 was 25 to 250 nM at CDK2/CCNE1 (setting [4]), over 250 nM at CDK1/CCNB1, 25 to 250 nM at CDK4/CCND3 (setting [2]) and 25 to 250 nM at CDK6/CCND1 (setting [3]).
With `CS(=O)(=O)c1ccc(Nc2cc3c(C#C[C@H]4CC[C@H](N)CC4)nccc3cn2)cc1` [Ex 247, 5-(((1r,4r)-4-aminocyclohexyl)ethynyl)-N-(4-(methylsulfonyl)phenyl)-2,6-naphthyridin-3-amine], the IC50 is 25 to 250 nM at CDK2/CCNE1 (setting [4]), over 250 nM at CDK1/CCNB1, 25 to 250 nM at CDK4/CCND3 (setting [2]) and 25 to 250 nM on CDK6/CCND1 (setting [3]).
As for `CS(=O)(=O)c1ccc(Nc2cc3c(N4CC5(CN(c6ccc(C#N)cc6)C5)C4)nccc3cn2)cc1` [Ex 248, 4-(6-(7-((4-(methylsulfonyl)phenyl)amino)-2,6-naphthyridin-1-yl)-2,6-diazaspiro[3.3]heptan-2-yl)benzonitrile], the IC50 at CDK2/CCNE1 (setting [7]), at CDK1/CCNB1, at CDK4/CCND3 (setting [5]) and at CDK6/CCND1 (setting [6]) was over 250 nM throughout.
